# US20260262643A1, “HERBICIDAL BENZOXAZINES” (FMC CORPORATION, priority 2022, published 2026)
# Assays:
# barnyardgrass [1] = assay: Test C preemergence; type: in vivo, Echinochloa crusgalli; conditions: 0 to 100 scale (0 no effect, 100 complete control)
# Procedure, shortened: (§1)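 Visual injury score, 0–100 (100 = complete control), taken 10 days after treatment relative to untreated controls. Pre: directed spray onto soil over sown seeds. Post: foliar spray at one- to two-leaf stage, 2–10 cm. Solvent/surfactant formulation; loam–sand soil; greenhouse.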
# horseweed = assay: Test C postemergence; type: in vivo, Erigeron canadensis; conditions: 10 days
# Procedure, shortened: as §1
# ragweed [2] = assay: Test C postemergence; type: in vivo, Ambrosia artemisiifolia; conditions: 10 days
# Procedure, shortened: as §1
# blackgrass [3] = assay: Test C postemergence; type: in vivo, Alopecurus myosuroides; conditions: 10 days
# Procedure, shortened: as §1
# ragweed [4] = assay: Test C preemergence; type: in vivo, Ambrosia artemisiifolia; conditions: 0 to 100 scale (0 no effect, 100 complete control)
# Procedure, shortened: as §1
# rice = assay: Test D flooded paddy test; type: in vivo, Oryza sativa; conditions: 250 g ai/ha, applied to paddy water, visual rating after 13 to 14 days, scale 0 to 100 (0 no effect, 100 complete control)
# Procedure, shortened: (§2)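 Plants grown to the 2-leaf stage; pots flooded to 3 cm above soil at treatment and held at that depth throughout. Test compounds applied directly to the paddy water. After 13 to 14 days in a greenhouse, response was rated visually versus controls on a 0 (no effect) to 100 (complete control) scale.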
# corn [5] = assay: Test C postemergence; type: in vivo, Zea mays; conditions: 10 days
# Procedure, shortened: as §1
# wheat [6] = assay: Test C postemergence; type: in vivo, Triticum aestivum; conditions: 10 days
# Procedure, shortened: as §1
# sedge, umbrella = assay: Test D flooded paddy test; type: in vivo, Cyperus difformis; conditions: 250 g ai/ha, applied to paddy water, visual rating after 13 to 14 days, scale 0 to 100 (0 no effect, 100 complete control)
# Procedure, shortened: as §2
# blackgrass [7] = assay: Test C preemergence; type: in vivo, Alopecurus myosuroides; conditions: 0 to 100 scale (0 no effect, 100 complete control)
# Procedure, shortened: as §1
# ducksalad = assay: Test D flooded paddy test; type: in vivo, Heteranthera limosa; conditions: 250 g ai/ha, applied to paddy water, visual rating after 13 to 14 days, scale 0 to 100 (0 no effect, 100 complete control)
# Procedure, shortened: as §2
# corn [8] = assay: Test C preemergence; type: in vivo, Zea mays; conditions: Test C, preemergence, 125 g ai/ha; 0 to 100 scale (0 no effect, 100 complete control)
# Procedure, shortened: as §1
# kochia [9] = assay: Test C postemergence; type: in vivo, Bassia scoparia; conditions: 10 days
# Procedure, shortened: as §1
# oat, wild [10] = assay: Test C preemergence; type: in vivo, Avena fatua; conditions: 0 to 100 scale (0 no effect, 100 complete control)
# Procedure, shortened: as §1
# soybean [11] = assay: Test C preemergence; type: in vivo, Glycine max; conditions: 0 to 100 scale (0 no effect, 100 complete control)
# Procedure, shortened: as §1
# pigweed, palmer [12] = assay: Test C postemergence; type: in vivo, Amaranthus palmeri; conditions: 10 days
# Procedure, shortened: as §1
# green foxtail [13] = assay: Test C preemergence; type: in vivo, Setaria viridis; conditions: 0 to 100 scale (0 no effect, 100 complete control)
# Procedure, shortened: as §1
# barnyardgrass [14] = assay: Test C postemergence; type: in vivo, Echinochloa crusgalli; conditions: 10 days
# Procedure, shortened: as §1
# soybean [15] = assay: Test C postemergence; type: in vivo, Glycine max; conditions: 10 days
# Procedure, shortened: as §1
# galium = assay: Test C postemergence; type: in vivo, Galium aparine; conditions: 10 days
# Procedure, shortened: as §1
# barnyardgrass [16] = assay: Test D flooded paddy test; type: in vivo, Echinochloa crus-galli; conditions: 250 g ai/ha, applied to paddy water, visual rating after 13 to 14 days, scale 0 to 100 (0 no effect, 100 complete control)
# Procedure, shortened: as §2
# pigweed, palmer [17] = assay: Test C preemergence; type: in vivo, Amaranthus palmeri; conditions: 0 to 100 scale (0 no effect, 100 complete control)
# Procedure, shortened: as §1
# ryegrass, Italian [18] = assay: Test C preemergence; type: in vivo, Lolium multiflorum; conditions: 0 to 100 scale (0 no effect, 100 complete control)
# Procedure, shortened: as §1
# wheat [19] = assay: Test C preemergence; type: in vivo, Triticum aestivum; conditions: 0 to 100 scale (0 no effect, 100 complete control)
# Procedure, shortened: as §1
# ryegrass, Italian [20] = assay: Test C postemergence; type: in vivo, Lolium multiflorum; conditions: 10 days
# Procedure, shortened: as §1
# oat, wild [21] = assay: Test C postemergence; type: in vivo, Avena fatua; conditions: 10 days
# Procedure, shortened: as §1
# green foxtail [22] = assay: Test C postemergence; type: in vivo, Setaria viridis; conditions: 10 days
# Procedure, shortened: as §1
# kochia [23] = assay: Test C preemergence; type: in vivo, Bassia scoparia; conditions: 0 to 100 scale (0 no effect, 100 complete control)
# Procedure, shortened: as §1
# [24] = Preemergence, 500 g ai/ha, visual rating after 10 days
# [25] = 125 g ai/ha, postemergence, 0 to 100 scale, 0 no effect, 100 complete control
# [26] = Postemergence, 500 g ai/ha, visual 0 to 100 scale (0 no effect, 100 complete control)
# [27] = Test C, preemergence, 125 g ai/ha
smiles,measurement,setting,value
Cc1ccc(-n2cnc(C3(C(F)(F)F)CCC3)n2)cc1C(=O)N1C[C@H](C)Oc2c(Cl)cccc21 [Compound 168],Barnyardgrass plant response rating,"barnyardgrass [1]; 125 g ai/ha, preemergence",50
same,"Plant response rating, Barnyardgrass",barnyardgrass [1]; [24],70
same,"Plant response rating, Horseweed",horseweed; [25],0
same,"Plant response rating, Horseweed",horseweed; [26],10
same,"Plant response rating, Ragweed",ragweed [2]; [25],60
same,"Plant response rating, Ragweed",ragweed [2]; [26],70
same,"Plant response rating, Blackgrass",blackgrass [3]; [25],0
same,"Plant response rating, Blackgrass",blackgrass [3]; [26],0
same,"Plant response rating, Ragweed",ragweed [4]; [24],60
same,Ragweed plant response rating,ragweed [4]; [27],30
same,"Plant response rating, Rice (Flood)",rice,0
same,"Plant response rating, Corn",corn [5]; [25],10
same,"Plant response rating, Corn",corn [5]; [26],10
same,"Plant response rating, Wheat",wheat [6]; [25],10
same,"Plant response rating, Wheat",wheat [6]; [26],20
same,"Plant response rating, Sedge, Umbrella (Flood)","sedge, umbrella",0
same,"Plant response rating, Blackgrass",blackgrass [7]; [24],60
same,Blackgrass plant response rating,blackgrass [7]; [27],20
same,"Plant response rating, Ducksalad (Flood)",ducksalad,0
same,Corn plant response rating,corn [8],0
same,"Plant response rating, Kochia",kochia [9]; [25],80
same,"Plant response rating, Kochia",kochia [9]; [26],80
same,"Plant response rating, Oat, Wild","oat, wild [10]; [24]",20
same,"Oat, Wild plant response rating","oat, wild [10]; [27]",0
same,"Plant response rating, Soybean",soybean [11]; [24],60
same,Soybean plant response rating,soybean [11]; [27],60
same,"Plant response rating, Pigweed, Palmer","pigweed, palmer [12]; [25]",70
same,"Plant response rating, Pigweed, Palmer","pigweed, palmer [12]; [26]",90
same,"Plant response rating, Foxtail, Green",green foxtail [13]; [24],100
same,"Foxtail, Green plant response rating",green foxtail [13]; [27],50
same,"Plant response rating, Barnyardgrass",barnyardgrass [14]; [25],10
same,"Plant response rating, Barnyardgrass",barnyardgrass [14]; [26],30
same,"Plant response rating, Soybean",soybean [15]; [25],100
same,"Plant response rating, Soybean",soybean [15]; [26],100
same,"Plant response rating, Galium",galium; [25],80
same,"Plant response rating, Galium",galium; [26],90
same,"Plant response rating, Barnyardgrass (Flood)",barnyardgrass [16],0
same,"Plant response rating, Pigweed, Palmer","pigweed, palmer [17]; [24]",100
same,"Pigweed, Palmer plant response rating","pigweed, palmer [17]; [27]",100
same,"Plant response rating, Ryegrass, Italian","ryegrass, Italian [18]; [24]",90
same,"Ryegrass, Italian plant response rating","ryegrass, Italian [18]; [27]",70
same,"Plant response rating, Wheat",wheat [19]; [24],20
same,Wheat plant response rating,wheat [19]; [27],0
same,"Plant response rating, Ryegrass, Italian","ryegrass, Italian [20]; [25]",20
same,"Plant response rating, Ryegrass, Italian","ryegrass, Italian [20]; [26]",40
same,"Plant response rating, Oat, Wild","oat, wild [21]; [25]",0
same,"Plant response rating, Oat, Wild","oat, wild [21]; [26]",0
same,"Plant response rating, Foxtail, Green",green foxtail [22]; [25],20
same,"Plant response rating, Foxtail, Green",green foxtail [22]; [26],30
same,"Plant response rating, Kochia",kochia [23]; [24],50
same,Kochia plant response rating,kochia [23]; [27],0
